The target in the assay is T1, human CRTH2 (Homo sapiens, UniProt Q9Y5Y4).
T1 construct: expressed in transfected cells
T1 sequence (Q9Y5Y4 1-395): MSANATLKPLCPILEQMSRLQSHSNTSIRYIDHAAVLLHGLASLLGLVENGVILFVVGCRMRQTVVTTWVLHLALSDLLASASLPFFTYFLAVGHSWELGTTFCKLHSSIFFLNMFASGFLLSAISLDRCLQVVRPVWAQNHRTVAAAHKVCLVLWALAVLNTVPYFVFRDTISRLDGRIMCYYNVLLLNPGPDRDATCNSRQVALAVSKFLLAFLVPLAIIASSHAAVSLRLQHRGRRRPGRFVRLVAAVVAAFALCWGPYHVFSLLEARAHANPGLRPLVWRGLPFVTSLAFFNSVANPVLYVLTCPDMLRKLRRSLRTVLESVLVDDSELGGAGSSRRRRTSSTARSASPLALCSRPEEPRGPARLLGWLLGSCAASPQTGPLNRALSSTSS
Briefly: Human CRTH2 Receptor Binding Assay (whole cell, [3H]ramatroban competition). Conditions: CHO-K1 cells stably expressing human CRTH2 and G-alpha16; 20 nM [3H]ramatroban; 1 hour, room temperature. An excerpt:
A whole cell receptor binding assay using [^3H]ramatroban as the competing radioactive ligand was employed to evaluate the compound binding activity to human CRTH2. The radioactive ligand [^3H]ramatroban was synthesized according to Sugimoto et. al. (Eur. J. Pharmacol. 524, 30-37, 2005) to a specific activity of 42 Ci/mmol.
A cell line stably expressing human CRTH2 was established by transfecting CHO-K1 cells with two mammalian expression vectors that harbored human CRTH2 and G-alpha16 cDNAs, respectively, using FuGene® 6 transfection reagent (from Roche). Stable clones expressing CRTH2 were selected by staining each clone with BM16 (BD Pharmingen™ from BD Biosciences, a division of Becton, Dickinson and Company), which is a rat monoclonal antibody to human CRTH2. The cells were maintained as monolayer cultures in Ham's F-12 medium containing 10% fetal bovine serum, 100 units/mL penicillin, 100 μg/mL streptomycin, 2 mM glutamine, 0.5 mg/mL G418 (geneticin) for CRTH2, and 0.2 mg/mL hygromycin-B (for G-alpha 16). For whole cell receptor binding assay, the monolayer cells were rinsed once with PBS (phosphate buffered saline), dissociated using ethylenediaminetetraacetate (Versene™ EDTA from Lonza Inc.), and suspended in PBS containing 10 mM MgCl2 and 0.06% BSA (bovine serum albumin) at 1.5×10^6 cells/mL.
The binding reactions (0.2 mL) were performed in 96-well plates at room temperature in PBS containing 1.5×10^5 cells, 10 mM MgCl2, 0.06% BSA, 20 nM [^3H]ramatroban, and test compound at various concentrations. After 1 hour of binding reactions, the cells were harvested on GF™/B filter microplates (microtiter plates with embedded glass fiber from PerkinElmer, Inc.) and washed 5 times with PBS using a Filtermate™ Harvester (a cell harvester that harvests and washes cells from microplates from PerkinElmer, Inc.). The radioactivities bound to the cells were determined using a microplate scintillation counter (TopCount® NXT, from PerkinElmer, Inc.) after adding 50 μL of Microscint™ 20 scintillation fluid (from PerkinElmer, Inc.) to each well of the filter plates. The radioactivity from non-specific binding was determined by replacing compound with 10 μM of 15(R)-15-methyl PGD2 (from Cayman Chemical Company) in the reaction mixtures. The radioactivity bound to the cells in the absence of compound (total binding) was determined by replacing compound with 0.25% of DMSO (dimethyl sulfoxide) in the reaction mixture. Specific binding data were obtained by subtracting the radioactivity of non-specific binding from each binding data.
The IC50 value is defined as the concentration of the tested compound that is required for 50% inhibition of total specific binding. In order to calculate the IC50 value, the percent inhibition data were determined for 7 concentrations for each compound. The percent inhibition for a compound at each concentration was calculated according to the following formula, [1−(specific binding in the presence of compound)/(total specific binding)]×100. The IC50 value was then obtained by fitting the percent inhibition data to a sigmoidal dose-response (4 parameter logistic) model in the XLfit® software Excel add-in program [from ID Business Solutions Ltd., model 205, where F(x)=(A+(B−A)/(1+((C/x)^D)))].
One may read the IC50 as the point on the concentration scale where inhibition reaches its midpoint. `CC(C)Oc1cc(C(F)(F)F)cc(S(=O)(=O)NC2CCCc3c2cnn3CC(=O)O)c1` (stereo not drawn) [Example 3-4a, [4-(3-Isopropoxy-5-trifluoromethyl-benzenesulfonylamino)-4,5,6,7-tetrahydro-indazol-1-yl]-acetic acid]: the IC50 turned out to be 194 nM.
The value for `CN([C@@H]1CCCc2c1cnn2CC(=O)O)S(=O)(=O)c1cnc(OC2CCOCC2)c(Br)c1` [Example 4-4a, ((R)-4-{[5-Bromo-6-(tetrahydro-pyran-4-yloxy)-pyridine-3-sulfonyl]-methyl-amino}-4,5,6,7-tetrahydro-indazol-1-yl)-acetic acid] was 53.9 nM.
The value for `Cc1cc(C)cc(S(=O)(=O)NC2CCCc3c2cnn3CC(=O)O)c1` (stereo not drawn) [Example 1-6a, [4-(3,5-Dimethyl-benzenesulfonylamino)-4,5,6,7-tetrahydro-indazol-1-yl]-acetic acid] was 397 nM.
`Cc1ccc(S(=O)(=O)NC2CCCc3c2cnn3CC(=O)O)cc1[N+](=O)[O-]` (stereo not drawn) [Example 1-5a, [4-(4-Methyl-3-nitro-benzenesulfonylamino)-4,5,6,7-tetrahydro-indazol-1-yl]-acetic acid]: the concentration for half-maximal inhibition (IC50) was found to be 225 nM.
The value for `CCS(=O)(=O)c1cc(C(F)(F)F)cc(S(=O)(=O)N[C@@H]2CCCc3c2cnn3CC(=O)O)c1` [Example 7-1a, [(R)-4-(3-Ethanesulfonyl-5-trifluoromethyl-benzenesulfonylamino)-4,5,6,7-tetrahydro-indazol-1-yl]-acetic acid] was 2.6 nM.
To `O=C(O)Cn1ncc2c1CCCC2NS(=O)(=O)c1cnc(Cl)c(Br)c1` (stereo not drawn) [Example 1-11a, [4-(5-Bromo-6-chloro-pyridine-3-sulfonylamino)-4,5,6,7-tetrahydro-indazol-1-yl]-acetic acid] belongs 291 nM.
Consider `CN([C@@H]1CCCc2c1cnn2CC(=O)O)S(=O)(=O)c1cc(Br)cc(Br)c1` [Example 2-6a, {(R)-4-[(3,5-Dibromobenzenesulfonyl)-methyl-amino]-4,5,6,7-tetrahydro-indazol-1-yl}-acetic acid], for which the IC50 amounted to 50.2 nM.
The value for `O=C(O)Cn1ncc2c1CCCC2NS(=O)(=O)c1cc(Br)cc(C(F)(F)F)c1` (stereo not drawn) [Example 1-7a, [4-(3-Bromo-5-trifluoromethyl-benzenesulfonylamino)-4,5,6,7-tetrahydro-indazol-1-yl]-acetic acid] was 35.7 nM.
For `CC1(c2cc(C(F)(F)F)cc(S(=O)(=O)N[C@@H]3CCCc4c3cnn4CC(=O)O)c2)CC1` [Example 11-1a, {(R)-4-[3-(1-Methyl-cyclopropyl)-5-trifluoromethyl-benzenesulfonylamino]-4,5,6,7-tetrahydro-indazol-1-yl}-acetic acid], the IC50 turned out to be 7.8 nM.
The value for `O=C(O)Cn1ncc2c1CCCC2NS(=O)(=O)c1cc(C(F)(F)F)ccc1C(F)(F)F` (stereo not drawn) [Example 1-13a, [4-(2,5-Bis-trifluoromethyl-benzenesulfonylamino)-4,5,6,7-tetrahydro-indazol-1-yl]-acetic acid] was 205 nM; that for `O=C(O)Cn1ncc2c1CCCC2NS(=O)(=O)c1cc(C2CC2)cc(C(F)(F)F)c1` (stereo not drawn) [Example 25-1a, [4-(3-Cyclopropyl-5-trifluoromethyl-benzenesulfonylamino)-4,5,6,7-tetrahydro-indazol-1-yl]-acetic acid] was 22 nM; that for `Cc1cc(S(=O)(=O)NC2CCCc3c2cnn3CC(=O)O)ccc1Br` (stereo not drawn) [Example 1-9a, [4-(4-Bromo-3-methyl-benzenesulfonylamino)-4,5,6,7-tetrahydro-indazol-1-yl]-acetic acid] was 277 nM.
To `CCN(CC)c1cc(C(F)(F)F)cc(S(=O)(=O)N(C)[C@@H]2CCCc3c2cnn3CC(=O)O)c1` [Example 24-4a, {(R)-4-[(3-Diethylamino-5-trifluoromethyl-benzenesulfonyl)-methyl-amino]-4,5,6,7-tetrahydro-indazol-1-yl}-acetic acid] belongs 146 nM; to `O=C(O)Cn1ncc2c1CCC[C@H]2NS(=O)(=O)c1cc(C(F)(F)F)cc(S(=O)(=O)C2CCCC2)c1` [Example 7-2a, [(R)-4-(3-Cyclopentane-sulfonyl-5-trifluoromethyl-benzenesulfonylamino)-4,5,6,7-tetrahydro-indazol-1-yl]-acetic acid], 2.9 nM; to `CCS(=O)(=O)c1cc(C(F)(F)F)cc(S(=O)(=O)N(C)[C@@H]2CCCc3c2cnn3CC(=O)O)c1` [Example 10-1a, {(R)-4-[(3-Ethanesulfonyl-5-trifluoromethyl-benzenesulfonyl)-methyl-amino]-4,5,6,7-tetrahydro-indazol-1-yl}-acetic acid], 2.5 nM.
To `CN([C@@H]1CCCc2c1cnn2CC(=O)O)S(=O)(=O)c1cc(SC2CCCC2)cc(C(F)(F)F)c1` [Example 9-1a, {(R)-4-[(3-Cyclopentylsulfanyl-5-trifluoromethyl-benzenesulfonyl)-methyl-amino]-4,5,6,7-tetrahydro-indazol-1-yl}-acetic acid] belongs 12.6 nM.
With `CN([C@@H]1CCCc2c1cnn2CC(=O)O)S(=O)(=O)c1cc(C(F)(F)F)cc(C2(C)CC2)c1` [Example 14-1a, ((R)-4-{Methyl-[3-(1-methyl-cyclopropyl)-5-trifluoromethyl-benzenesulfonyl]-amino}-4,5,6,7-tetrahydro-indazol-1-yl)-acetic acid], the IC50 amounted to 6.2 nM.
Molecule `CN([C@@H]1CCCc2c1cnn2CC(=O)O)S(=O)(=O)c1ccc(Br)cc1F` [Example 2-4a, {(R)-4-[(4-Bromo-2-fluoro-benzenesulfonyl)-methyl-amino]-4,5,6,7-tetrahydro-indazol-1-yl}-acetic acid] had a concentration for half-maximal inhibition (IC50) of 253 nM.
The value for `CN([C@@H]1CCCc2c1cnn2CC(=O)O)S(=O)(=O)c1cc(C2CC2)cc(C(F)(F)F)c1` [Example 26-1a, {(R)-4-[(3-Cyclopropyl-5-trifluoromethyl-benzenesulfonyl)-methyl-amino]-4,5,6,7-tetrahydro-indazol-1-yl}-acetic acid] was 16.3 nM; that for `CN([C@@H]1CCCc2c1cnn2CCC(=O)O)S(=O)(=O)c1cc(C(F)(F)F)cc(S(=O)(=O)C(C)(C)C)c1` [Example 10-7a, 3-((R)-4-{Methyl-[3-(2-methyl-propane-2-sulfonyl)-5-trifluoromethyl-benzenesulfonyl]-amino}-4,5,6,7-tetrahydro-indazol-1-yl)-propionic acid] was 12.5 nM; that for `C#Cc1cc(C(F)(F)F)cc(S(=O)(=O)NC2CCCc3c2cnn3CC(=O)O)c1` (stereo not drawn) [Example 16-1a, [4-(3-Ethynyl-5-trifluoromethyl-benzenesulfonylamino)-4,5,6,7-tetrahydro-indazol-1-yl]-acetic acid] was 69.8 nM.

Source of the values: patent US8124641B2, “Aminotetrahydroindazoloacetic acids” (Hoffmann-La Roche Inc., priority 2008, dated 2012).
